The EC50 is the concentration needed to bring the measured effect to its halfway point.

Structures are written as SMILES. The source made the active and inactive calls.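 Rule for the calls: active = half-maximal concentration for the rise in caspase light signal at or below ten times the top tested dose; inconclusive = flat fit between 30% and 70% activity, or unreliable curve fit; inactive = the rest.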 A value given as a limit tells only on which side of the number the result lay.

This experiment concerns MEF A1-2A-BIM cells, caspase 3/7 luminescence, 3 h. The experiment is described as follows: caspase activation in A1-2A-BIM MEF cells, dose response, A1 inhibitor project, cell-based, luminescence, retest (AID 2765).
With `COC(=O)C1SCC2C(=O)N(Cc3ccc(Cl)cc3)CC(=O)N21` (stereo not drawn), the EC50 was > 35 µM (inactive).
In the case of `COc1ccc(-c2nc(NC(=O)c3n[nH]c(=O)c4ccccc34)sc2C)cc1`, the EC50 was > 35 µM (inactive).
For `CCN(CC)C(=O)Oc1ccc(Br)c2ccccc12`, the EC50 was > 35 µM (inactive).
Turning to `O=C(CSc1nc2ncc(Br)cc2[nH]1)c1ccc([N+](=O)[O-])cc1`, the EC50 is > 35 µM (inactive).
For `Cc1cccc(NC(=O)CCC(=O)N/N=C/c2ccco2)c1C`, the EC50 was > 35 µM (inactive).
For the compound `COc1ccc(CCNC(=O)CCOc2ccc(C)cc2)cc1OC`, the EC50 is > 35 µM (inactive).
Turning to `CCC(Sc1ncccc1Nc1ccccn1)C(=O)O` (stereo not drawn), the EC50 was > 35 µM (inactive).
On to `CCCNC(=O)C(Cc1ccccc1F)NC(=O)c1ccccn1` (stereo not drawn), for which the EC50 was > 35 µM (inactive).
In the case of `Cc1ccc(C(=O)Nc2nnc(C3=COCCO3)o2)cc1C`, the EC50 is > 35 µM (inactive).
In the case of `NS(=O)(=O)c1ccc(-c2ccc(/C=C3\C(=O)Nc4ccccc43)o2)cc1`, the EC50 was > 35 µM (inactive).
As for `Clc1ccc(C2=CC(c3ccco3)n3ncnc3N2)cc1` (stereo not drawn), the EC50 is > 35 µM (inactive).
For `COc1cccc(CNC(=O)CN2C(=O)COc3ccc(S(=O)(=O)N4CCCCCC4)cc32)c1`, the EC50 was > 35 µM (inactive).
Consider `CCN(CC)C1CCN(C(=O)c2ccc(OC3CCN(CCc4ccccc4)CC3)cc2)C1` (stereo not drawn), for which the EC50 is > 35 µM (inactive).
Then `O=C(c1cc(C2CC2)nn1-c1ccccc1)N1CCN(S(=O)(=O)c2cccc(F)c2)CC1`, with > 35 µM (inactive).
As to `O=C(CCl)N=c1sccn1Cc1ccccc1Cl`, the EC50 is > 35 µM (inactive).
Turning to `Cc1ccccc1OCCOC(=O)c1c(-c2ccccc2)noc1C`, the EC50 is > 35 µM (inactive).
Then `Nc1nonc1-n1nnc(C(=O)N/N=C/c2ccc(Br)cc2)c1CN1CCOCC1`, with > 35 µM (inactive); and `CCOc1ccc(OCC(=O)N(CCC2=CCCCC2)c2c(N)n(Cc3ccccc3)c(=O)[nH]c2=O)cc1`, with 19.1 µM; and `CC1=NNC(=O)/C1=C\c1cn(-c2ccccc2)nc1-c1cccs1`, with 15.1 µM.
Turning to `Cc1cc(=O)oc2cc(OCCC[n+]3ccccc3)ccc12`, the EC50 is > 35 µM (inactive).
On to `CCN(C(=O)c1ccc2c(=O)n3c(nc2c1)CCCCC3)c1ccccc1C`, for which the EC50 is > 35 µM (inactive).
Consider `CC(=O)Nc1ccc(SCCN2CC[C@@H](C(C)(C)C)CCC2=O)cc1`, for which the EC50 is > 35 µM (inactive).
For the compound `Cc1cccc(/C=N/NC(=O)c2cc3c(s2)-c2ccccc2CC3)c1`, the EC50 is > 35 µM (inactive).
`N#Cc1ccc(S(=O)(=O)N2CCC(N3CCCCC3)CC2)cc1`: the EC50 was > 35 µM (inactive).
In the case of `O=C(NC1CCCc2ccccc21)c1ccccc1OC(F)F` (stereo not drawn), the EC50 is > 35 µM (inactive).
Consider `COc1ccc(S(=O)(=O)Nc2ccc(NC(C)=O)cc2)cc1`, for which the EC50 was > 35 µM (inactive).
On to `O=C(Nc1nc2c(Br)cc(Br)cc2c(=O)s1)c1ccco1`, for which the EC50 was > 35 µM (inactive).
With `CC(=O)Nc1ccc(C(=O)CN2C(=O)NC3(CCCc4ccccc43)C2=O)c(F)c1` (stereo not drawn), the EC50 was > 35 µM (inactive).
`Cc1ccc2c(c1)c(C1=c3ccccc3=NC1=O)c(O)n2C`: the EC50 is > 35 µM (inactive).
Take `Nc1cccc(Oc2cnccn2)c1`: the EC50 was > 35 µM (inactive).
As for `COc1cc(/C=C(/C#N)C(=O)NCCc2c[nH]c3ccccc23)ccc1OCc1ccccc1F`, the EC50 was > 35 µM (inactive).
Regarding `CCOc1ccc(-n2c(SCC(=O)Nc3ccc(Br)cc3)nc3n[nH]c(C)c3c2=N)cc1`, the EC50 was 21.6 µM.
With `O=C(Cn1c(C(F)(F)F)nc2ccccc21)N=Nc1c(O)[nH]c2ccc(Br)cc12`, the EC50 is 27.4 µM.
Consider `COc1ccc(OC[C@@H](O)CNC(=O)c2cccc3c2C(=O)c2ccc(-c4ccc(F)cc4OCc4ccccc4)cc2S3(=O)=O)cc1`, for which the EC50 was > 35 µM (inactive).
The figure for `CCOc1ccc(NC(=S)NC(=O)/C=C/c2ccc(C)cc2)c([N+](=O)[O-])c1` is 31.5 µM; for `Cc1cc(N2C(=O)C=CC2=O)c([N+](=O)[O-])cc1C` it is > 35 µM (inactive).
Consider `CCCCn1c(N2CCCC2)nc2c1c(=O)[nH]c(=O)n2C`, for which the EC50 was > 35 µM (inactive).
Take `CSc1ccc(CNC(=O)Cn2nc(C)c3c(C)n(-c4ccc(C)cc4)nc3c2=O)cc1`: the EC50 was > 35 µM (inactive).
For the compound `Oc1ccc(C[C@H]2CNCCN2CCCCC2CCCCC2)cc1`, the EC50 was > 35 µM (inactive).
For the compound `COC(=O)CN(c1ccc(OC)c(OC)c1)S(C)(=O)=O`, the EC50 is > 35 µM (inactive).
Take `COC(=O)c1ccc(Cl)cc1NC(=O)/C=C/c1ccc(C)o1`: the EC50 was > 35 µM (inactive).
Consider `COc1ccc(C)cc1S(=O)(=O)n1cnc2ccccc21`, for which the EC50 is > 35 µM (inactive).
For the compound `Cc1ccc(C)c(NC(=S)NC(NC(=O)Cc2cccc3ccccc23)C(Cl)(Cl)Cl)c1` (stereo not drawn), the 50% effective concentration (EC50) is 5.84 µM.
Then `S=C(Nc1ccccc1)N1N=C(c2cccs2)CC1c1cccs1` (stereo not drawn), with > 35 µM (inactive); and `Cc1cccc(C)c1NC(=O)CSc1nc(C)c(CC(=O)c2ccc(Br)cc2)c(C)c1C#N`, with 30.2 µM; and `COc1ccc2[nH]c(=O)c(-c3nnn(-c4ccccc4)n3)cc2c1`, with > 35 µM (inactive).
The figure for `CCOc1cc(/C=C\[N+](=O)[O-])ccc1OCC(=O)Nc1ccccc1C` is 3.67 µM.
Take `CC(=O)Nc1ccc(S(=O)(=O)N2CCCC3CCCCC32)cc1` (stereo not drawn): the EC50 is > 35 µM (inactive).
The figure for `CSc1cccc(NS(=O)(=O)c2cn(C)cn2)c1` is > 35 µM (inactive).
Take `Fc1ccc(NC(=S)NCc2ccccc2Cl)cc1`: the EC50 is > 35 µM (inactive).
Take `CCOC(=O)/C=c1\s/c(=C\c2ccc(C(=O)OC)cc2)c(=O)n1CC(=O)Nc1ccccc1`: the EC50 is > 35 µM (inactive).
`CC(C)(C)C(=O)CNS(=O)(=O)c1ccc(S(=O)(=O)NC2CC2)cc1`: the EC50 was > 35 µM (inactive).
Take `COc1ccc(CCNC(=O)C2CCCN2C(=O)Nc2ccc(Cl)cc2)cc1OC` (stereo not drawn): the EC50 is > 35 µM (inactive).
For the compound `CCc1cccc(CC)c1NC(=O)C1CSC2(C)CCC(=O)N12` (stereo not drawn), the EC50 is > 35 µM (inactive).
As to `CC(=O)Oc1ccccc1C(=O)Oc1ccccc1C(=O)O`, the EC50 was > 35 µM (inactive).
Take `CC1=NOC(=O)/C1=C\c1ccc(-c2cccc(Cl)c2)o1`: the EC50 is > 35 µM (inactive).
`O=C(NC1CCCCC1)C(c1ccc(F)cc1)N(CCc1ccccc1)C(=O)CN1C(=O)c2ccccc2S1(=O)=O` (stereo not drawn): the EC50 was 24.1 µM.
For `COC(=O)CSc1nc(N)c2c3c(sc2n1)C(c1ccccc1)SC(c1ccccc1)C3` (stereo not drawn), the EC50 is > 35 µM (inactive).
For `OCc1ccc(OCCCOc2cccc3cccnc23)cc1`, the EC50 was > 35 µM (inactive).
Regarding `CCC(C)[C@@H](C(=O)NCC1CCC(C(=O)O)CC1)n1nnc2ccccc2c1=O` (stereo partly drawn), the EC50 is > 35 µM (inactive).
For `O=[N+]([O-])c1ccc(CP(=O)(c2ccccc2)c2ccccc2)cc1`, the EC50 is > 35 µM (inactive).
Regarding `Cn1c(O)c(C=NCCN2CCN(C(=O)Nc3ccccc3)CC2)c(=O)n(C)c1=O`, the EC50 is > 35 µM (inactive).
With `COc1ccc(N2CCN(C3CCCN(Cc4cccc(C(C)=O)c4)C3)CC2)cc1` (stereo not drawn), the EC50 was > 35 µM (inactive).

The values are drawn from PubChem BioAssay AID2765 (Broad Institute, 2010).
